Measured values from patent publication US11576979B2, “Pyrrolobenzodiazepine prodrugs and antibody conjugates thereof” (GENENTECH, INC., priority 2016, dated 2023).
Like-named read-outs stand apart in the source and are kept apart here.

How the values were obtained:
DLD-1 = assay: Standard cell panel (Table 7B); assay type: cell-based; details: Homo sapiens
Excerpt: (§1) PBD dimer control 1 and PBD dimer control 2 were further evaluated in standard cell panels against a number of cell lines.

BJAB = assay: Standard cell panel (Table 7B); assay type: cell-based; details: Homo sapiens
Excerpt: as §1

A2058 = assay: Standard cell panel (Table 7B); assay type: cell-based; details: Homo sapiens
Excerpt: as §1

KPL-4 [1] = assay: Standard cell panel (Table 7B); assay type: cell-based; details: KPL4
Excerpt: as §1

MES-SA/Dx5 = assay: Standard cell panel (Table 7B); assay type: cell-based; details: Homo sapiens
Excerpt: as §1

BJAB/Pgp = assay: Standard cell panel (Table 7B); assay type: cell-based; details: Homo sapiens
Excerpt: as §1

HL-60 = assay: Standard cell panel (Table 7B); assay type: cell-based; details: Homo sapiens
Excerpt: as §1

MES-SA = assay: Standard cell panel (Table 7B); assay type: cell-based; details: Homo sapiens
Excerpt: as §1

HCT 116 = assay: Standard cell panel (Table 7B); assay type: cell-based; details: Homo sapiens
Excerpt: as §1

MDA-MB-231 = assay: Standard cell panel (Table 7B); assay type: cell-based; details: Homo sapiens
Excerpt: as §1

[2] = test system: double strand DNA Oligos 1 and 2; assay: DNA oligo binding, LC/MS/UV; details: 100 uM compound, 100 uM DNA, 1 hour, 37 C
Protocol: For DNA binding determination, the compounds were incubated at 100 μM with 100 μM double strand DNA Oligos 1 and 2 for 1 hour in 10 mM Bis-Tris, pH 7.1 at 37° C. The single strand DNA Oligos (5′-TATAGAATCTATA-3′ and 3′-ATATCTTAGATAT-5′) were synthesized at Genentech. The samples were analyzed by LC/MS/UV (210-450 nm) on Sciex TripleTOF 5600 on a Hypersil Gold C18 column (100×2.1, 1.9 Thermo Scientific). The column was eluted at 0.4 mL/min by a gradient of buffer A (50 mM hexafluoro-isopropanol and 15 mM diisopropylethylamine) to buffer B (50% A and 50% of 1:1 methanol:acetonitrile), 5% 0-0.5 min, 5-25% B 0.5-25 min, 25-95% B 25-40 min, and to 95% B 40-42 min. The % remaining was an average of the starting DNA oligos remaining in incubations (n=2). The products were characterized by LC/MS in a negative ESI ion mode.

HCC1395 = assay: CELLTITER GLO cell proliferation assay (Example 6); assay type: cell-based; details: Homo sapiens, Table 4, read-out: IC50 potency HCC1395
Jurkat = assay: CELLTITER GLO cell proliferation assay (Example 6); assay type: cell-based; details: Homo sapiens, Table 4, read-out: IC50 potency Jurkat
HCT-116 = assay: CELLTITER GLO cell proliferation assay (Example 6); assay type: cell-based; details: Homo sapiens
WSU Cell line = assay: Cell viability, DTD-activated quinone prodrugs (Example 15); assay type: cell-based
Protocol: (§2) The toxicity of PBD dimer diaphorase prodrug 1, PBD monomer diaphorase prodrug 2, PBD dimer control 1 and PBD monomer control 1 were evaluated against KPL-4 and WSU cell lines for cell viability. The KPL-4 cell line is was a high DTD cell line characterized by NQO1 nRPKM of 839 and the WSU cell line was a low DTD cell line characterized by a NQO1 nRPKM of 1.36. The IC50 ratios are based on the prodrug IC50 value relative to the PBD dimer control.

KPL-4 Cell line = assay: as above; assay type: cell-based
Protocol: as §2

DT Diaphorase [3] = target: T1, DT Diaphorase (Homo sapiens, UniProt P15559); assay: DT diaphorase activated payload release (LC-MS MRM quant); assay type: biochemical; details: after 90 minutes incubation
T1 construct: purchased Sigma D1315
T1 sequence (P15559 whole entry): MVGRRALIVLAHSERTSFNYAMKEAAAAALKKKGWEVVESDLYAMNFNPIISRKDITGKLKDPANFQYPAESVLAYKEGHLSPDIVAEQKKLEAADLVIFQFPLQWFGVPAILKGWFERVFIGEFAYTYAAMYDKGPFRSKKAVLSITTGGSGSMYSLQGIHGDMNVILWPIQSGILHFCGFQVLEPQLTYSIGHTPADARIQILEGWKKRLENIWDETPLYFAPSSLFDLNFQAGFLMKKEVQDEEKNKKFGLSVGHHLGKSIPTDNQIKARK
Protocol: In addition to the potency evaluation, the release of PBD dimer diaphorase prodrug 1 was evaluated. The release was measured to be 12% after 90 minutes incubation according to the following method. First, a master mix reaction was prepared containing 0.5 uM of the […], […] NADPH […]. Second, the reaction mix was incubated at room temperature for 5, 30, 90 min. […] Finally, data was analyzed using MultiQuant analysis software and standards were calculated using GraphPad Prism 6 linear regression fit.
An in vitro DT diaphorase activated drug release assay was used to measure NADPH depletion. DT diaphorase activated release of Norfloxacin and Payload (PBD) was measured by the in vitro depletion of NADPH. The assay method was modified from the absorbance measurement of NADPH at A340 (Osman et. al, Chemico-Biological Interactions 147 (2004) 99-108) due to the interference of compounds. The depletion of NADPH was measured by monitoring the decrease of fluorescence intensity of NADPH at 480 nm after being excited at 340 nM. […] The fluorescence intensity (RFU) of DNAPH was recorded on M1000 plate reader (Tecan) with excitation at 340 nm and emission at 480 nm. For data analysis, data was analyzed and plotted using Prism GraphPad 6. […]

WSU-DLCL2 = assay: CELLTITER GLO cell proliferation assay (Example 6); assay type: cell-based; details: data in parenthesis = repeat evaluations
Method in brief: (§3)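 Cells seeded at about 8000 (WSU-DLCL2) or 4000 (KPL-4) per well in RPMI-1640 with 10% FBS, 2 mM glutamine, 50 uM cystine and 0.015 g/L L-methionine; 10-point 1:3 dose-response in triplicate, cultured at 37° C., 5% CO2. Viability read by CellTiter-Glo luminescence, normalized to no-compound minus no-cell controls.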

KPL-4 [4] = assay: CELLTITER GLO cell proliferation assay (Example 6); assay type: cell-based; details: data in parenthesis = repeat evaluations
Method in brief: as §3

[5] = test system: MDA-MB-453 tumor cell line; assay: in vitro tumor cell killing assay, 3 days (Example 13); assay type: cell-based; details: Homo sapiens, MDA-MB-453, 72 h
Protocol: The toxicity of various PBD monomer and dimer boronic acid prodrug compounds were evaluated for cell toxicity. In the in vitro tumor cell killing assay, the cells were added to each well of 96-well microtiter plates at 8,000 cells per well and were incubated overnight at 37° C. in a humidified atmosphere of 5% CO2. The cells were exposed to various concentration of the indicated prodrug, positive control and negative control compounds. Where silvestrol was evaluated, a 1:3 serial dilution was used. After incubation for 3 days, Cell titer-Glo reagent (Promega, Madison Wis.) was added to the wells at 100 μL per well followed by a 10-minute incubation at room temperature, and the luminescent signal was measured using a Packard/Perkin-Elmer TopCount.
The toxicity of PBD monomer boronic acid prodrug 1 was evaluated against MDA-MB-453 tumor cell line for cell viability. PBD monomer control 1 was used as a positive control and PBD monomer control 2 was used as a negative control. The toxicity study was repeated wherein the PBD prodrug and controls were administered in combination with silvestrol. FIG. 15C depicts a plot of MDA-MB-453 cell kill versus drug concentration in μM three days after exposure to: (i) a PBD monomer control; (ii) a PBD monomer control having a benzyl formate moiety at the N10 PBD position; and (iii) a PBD monomer boronic acid prodrug. […]

DT Diaphorase [6] = target: T1, DT Diaphorase; assay: in vitro DT diaphorase activated drug release assay (NADPH depletion); assay type: biochemical; details: in <5 min
Protocol: An in vitro DT diaphorase activated drug release assay was used to measure NADPH depletion. DT diaphorase activated release of Norfloxacin and Payload (PBD) was measured by the in vitro depletion of NADPH. The assay method was modified from the absorbance measurement of NADPH at A340 (Osman et. al, Chemico-Biological Interactions 147 (2004) 99-108) due to the interference of compounds. The depletion of NADPH was measured by monitoring the decrease of fluorescence intensity of NADPH at 480 nm after being excited at […]. […] Prior to assay, dilute the stock to 1 mM as the 5× working solution; (5) DT Diaphorase specific Inhibitor: prepare 40 mM stock of Dicumarol (Sigma, Cat #M1390-5G, MW=336.29) in 0.13 N NaOH, stored at 4° C. Dilute the stock to 250 uM as the 5× working solution; (6) Compounds: dilute the Norfloxacin and PBD conjugated compounds in assay buffer to 250 uM as the 5× working solution; and (7) 384 well black plate with clear bottom. For the assay procedure: (1) The reaction mix containing 0.5 uM DT-D, 50 uM compound, […] NADPH was set up in a 384 well plate at 50 ul/well. For the control with DT Diaphorase inhibitor, Dicumarol was added in the reaction mix at final 50 uM for each compound. Reaction mix containing NADPH and compound only was also added as the baseline controls. The DT Diaphorase was added in the last step; and (2) The reaction mixes were incubated at room temperature for 5, 30, 90 min. The fluorescence intensity (RFU) of DNAPH was recorded on M1000 plate reader (Tecan) with excitation at 340 nm and emission at 480 nm. For data analysis, data was analyzed and plotted using Prism GraphPad 6. The depletion of NADPH was calculated by the formula below at reaction time point at 90 min wherein: % NADPH depletion=[…].

C=C1C[C@H]2CNc3cc(OCCCCCOc4cc5c(cc4OC)C(=O)N4CC(=C)C[C@H]4CN5)c(OC)cc3C(=O)N2C1 [PBD dimer control 2]
IC50 (DLD-1): > 100 nM | IC50 (BJAB): 4.9 nM | IC50 (A2058): 5.3 nM | IC50 (KPL-4 [1]): 67.4 nM | IC50 (MES-SA/Dx5): > 100 nM | IC50 (BJAB/Pgp): 53.7 nM | IC50 (HL-60): 2.4 nM | IC50 (MES-SA): 10 nM | IC50 (HCT 116): 15 nM | IC50 (MDA-MB-231): 73.2 nM | % DNA oligo remaining [2]: 100%

C=C1C[C@H]2C=Nc3cc(OCCCCCOc4cc5c(cc4OC)C(=O)N4CC(=C)C[C@H]4C(O)N5C(=O)OCc4cc5c(n4C)C(=O)C=C(OC)C5=O)c(OC)cc3C(=O)N2C1 (stereo partly drawn) [PBD dimer diaphorase prodrug 1]
IC50 (HCC1395): 14.2 nM | IC50 (Jurkat): 2.05 nM | IC50 (HCT-116; HCT-116, Table 4, read-out: IC50 potency HCT-116): 21.3 nM | IC50 (WSU Cell line; WSU Cell line (low DTD), Table 10, read-out: IC50 Potency): 8.56 nM | IC50 (KPL-4 Cell line; KPL4, KPL-4 Cell line (high DTD), Table 10, read-out: IC50 Potency): 35.5 nM | release (DT Diaphorase [3]): 12%

C=C1C[C@H]2C=Nc3cc(OCCCCCOc4cc5c(cc4OC)C(=O)N4CC(=C)C[C@H]4C(O)N5C(=O)OCc4ccc(NC(=O)OCc5cc6c(n5C)C(=O)C=C(OC)C6=O)cc4)c(OC)cc3C(=O)N2C1 (stereo partly drawn) [PBD dimer diaphorase prodrug 2]
IC50 (WSU-DLCL2; Homo sapiens, WSUDLCL2, Table 4, read-out: IC50 potency WSU-DLCL2): 0.8 nM | IC50 (HCC1395): 9.84 nM | IC50 (Jurkat): 1.25 nM | IC50 (KPL-4 [4]; KPL4, Table 4, read-out: IC50 potency KPL-4): 10.1 nM

C=C1C[C@H]2C(O)N(C(=O)OCc3ccc(B4OC(C)(C)C(C)(C)O4)cc3)c3cc(OC)c(OC)cc3C(=O)N2C1 (stereo partly drawn) [PBD monomer boronic acid prodrug 1]
EC50 [5]: 1850 nM

C=C1C[C@H]2C(O)N(C(=O)OCc3cc4c(n3C)C(=O)C=C(OC)C4=O)c3cc(OC)c(OC)cc3C(=O)N2C1 (stereo partly drawn) [PBD monomer diaphorase prodrug 2]
IC50 (WSU-DLCL2; Homo sapiens, WSUDLCL2, read-out: IC50 potency WSU-DLCL2, Table 4): 575 nM | IC50 (WSU-DLCL2; read-out: IC50 potency WSU-DLCL2, Table 4): 288 nM | IC50 (KPL-4 [4]; KPL4, read-out: IC50 potency KPL-4, Table 4): 344 nM | IC50 (KPL-4 [4]; read-out: IC50 potency KPL-4, Table 4): 355 nM | IC50 (HCT-116; HCT-116, read-out: IC50 potency HCT-116): 223 nM | IC50 (WSU Cell line; read-out: IC50 Potency (nM)): 575 nM | IC50 (KPL-4 Cell line; KPL4, read-out: IC50 Potency (nM)): 344 nM | NADPH Dep. (DT Diaphorase [6]): >90% in
